Data taken from US20140315812A1, “AMORPHOUS EZATIOSTAT ANSOLVATE” (Telik, Inc., priority 2011, published 2014).
Where two headings read alike, the source gives them in different places.

What was measured:
[1] = tested on: white blood cell production; conditions: cited from earlier work
[2] = in vivo; cited from earlier work
[3] = in vitro; cited from earlier work
[4] = tested on: hematopoietic progenitor cells; conditions: normal human peripheral blood; cited from earlier work
[5] = ezatiostat hydrochloride in a liposomal injectable formulation, MDS patients; cited from earlier work
[6] = tested on: HL-60 promyelocytic leukemia cells; conditions: in vitro; cited from earlier work
[7] = Stability of the amorphous form by visual inspection after storage; format: physicochemical
Description: The stability of the amorphous form was evaluated by visual inspection of a sample of the amorphous form prepared above after being stored at about 0-5° C. for about 8 months.

SMILES | white blood cell production ([1]; animals in which white blood cells were depleted by treatment with cisplatin or fluorouracil) | white blood cell production ([1]; normal animals) | potentiation of the activity of cytotoxic agents [2] | potentiation of the activity of cytotoxic agents [3] | colony formation of hematopoietic progenitor cells [4] | hematologic improvement [5] | tolerability [5] | differentiation of HL-60 promyelocytic leukemia cells [6] | visual inspection (color, texture, flowability, crystal formation) ([7]; stored at about 0-5° C. for about 8 months) | time for which the amorphous form is stable ([7]; under 0-5° C.)
CCOC(=O)[C@@H](N)CCC(=O)N[C@@H](CSCc1ccccc1)C(=O)N[C@@H](C(=O)OCC)c1ccccc1 [Ezatiostat] | increase white blood cell production | increase white blood cell production | potentiate the activity of cytotoxic agents | potentiate the activity of cytotoxic agents | stimulate colony formation of all three lineages | multi-lineage hematologic improvement | well tolerated | induce the differentiation | – | –
CCOC(=O)[C@@H](N)CCC(=O)N[C@@H](CSCc1ccccc1)C(=O)N[C@@H](C(=O)OCC)c1ccccc1.Cl [amorphous form, ezatiostat hydrochloride] | – | – | – | – | – | – | – | – | No change with respect to color, texture and flowability of the sample and no crystal formation was observed | at least 8 months
